From publication PMC9122897, “SHR1032, a novel STING agonist, stimulates anti-tumor immunity and directly induces AML apoptosis” (Scientific Reports, 2022)
pEC50: −log10 of the molar value.

Tests used:
THP1-STING-WT cells = test: RNA-seq differentially expressed genes; format: cell-based, human; conditions: 1 µM, 4 h
Method: (§1) Figure 5 Cell apoptosis induced by SHR1032 in AML cell lines is independent of type I interferon. (a–d) RNA-Seq analysis of THP1-STING-R232, THP1-STING-KO and MV4-11 AML cells treated with 1 µM of SHR1032 for 4 h. […] (d) ANNEXIN V staining analysis with flow cytometry in MV4-11, MOLM-16, THP1-STING-WT and THP1-STING-KO cells. (e) Cell viability analysis by CellTiter Glo in THP1-IRFAR2-WT or -KO cells.
(§2) RNA was extracted from cells using RNeasy Plus Mini Kit (Qiagen). Library preparation with NEBNext Ultra II with PolyA selection, sequencing with NovaSeq and data analysis was performed by Admera Health, New Jersey. The De-Seq2 (version 1.14.1) was used to do the differential analysis. Gene expression levels were quantified as Fragments Per Kilobase Million (FPKM). Gene expression with FPKM value ≥ 0.5 were selected and Log2-transformed for the Differential Gene Expression (DEGs) analysis using iDEP (http://bioinformatics.sdstate.edu/idep/). DEGs were defined by p < 0.05 within each indicated paired-comparison and then used for Gene Ontology Analysis and heatmap generation. The Gene Ontology Analysis was done using Enrichr. The heatmap was created using R package gplots (version 3.1.1), function heatmap.2.

MV4-11 cells = test: RNA-seq differentially expressed genes; format: cell-based, human; conditions: MV4-11, 1 µM, 4 h
Method: as §1, §2

[1] = system: THP1-IFNAR2-WT and THP1-IFNAR2-KO cells; test: Cell TiterGlo cell viability, IFNAR2 WT versus KO; format: cell-based, human; conditions: THP1-IFNAR2-WT vs -KO
Method: as §1
Type I interferons have been known to drive apoptosis in AML cells. Therefore, the apoptotic effects might be caused by type I interferons generated by STING activation. To address this question, we examined the IFNβ production with ELISA in MV4-11 and MOLM-16 cells stimulated with SHR1032. […] The activity of type I IFNs is mediated by the IFN-α receptor (IFNAR), which consists of two chains: IFNAR1 and IFNAR2. Knockout of the IFNAR2 gene abolishes the cellular response to type I IFNs.
(§3) THP1 reporter cells were treated for 24 h with a total of 100 k cells and 150 ul media in each well a 96-well plate. […] Luminescence signal was measured using Tecan infinite M1000. EC50 values were calculated using non-linear regression analysis of GraphPad Prism. Cell growth was monitored by CellTiter-Glo Luminescent Cell Viability Assay (Promega) per manufacture’s protocol. GI50 values were calculated using non-linear regression analysis of GraphPad Prism. […]

THP1 reporter cells = test: THP1 IRF luciferase reporter assay; format: cell-based; conditions: Homo sapiens, THP-1; IRF Lucia luciferase reporter, 24 h; read-out: THP1 reporter cell EC50
Text: We sought to develop small molecule compounds with increased STING agonist activity against human STING. GSK reported a series of non-CDN small molecules, represented by compound 1[13], with good human STING agonistic activity. Based on our molecular modeling analysis, along with the reported CDN-STING crystal structures, we designed a novel series of fused tricyclic heterocycle compounds and analyzed their binding to human STING with thermal shift assays and the potency in activation of STING signaling with a reporter cellular assay (Supplementary Table S1). Thermal shift assays measure the difference between apo STING and ligand bound STING in the inflection point at which 50% of protein is thermally unfolded (ΔTm). […] The ability of compounds to activate the IRF reporter gene in the THP1 cells was also evaluated.
as §3

[2] = system: mouse RAW164.7 macrophage cells; test: Western blot of TBK1 phosphorylation; format: cell-based; conditions: 10 µM SHR1032 vs 40 µM ADU-S100
Method: (§4) Figure 2 SHR1032 specifically and potently activates STING signaling pathway. IRF luciferase reporter assays in (a) THP1-STING-R232, THP1-STING-H232, THP1-STING-HAQ, and THP1-STING-KO cells. Cells were stimulated for 24 h with the indicated STING compounds and assessed for luciferase activity. IFNβ production and activation of cGAS-STING signaling pathway in (b) human THP1-STING-R232, human PBMCs from a donor homozygous for the R232 variant, cynomolgus PBMC, and mouse RAW164.7 macrophage cells were treated with STING agonists for 5 h. IFNβ in media was quantified by human or mouse ELISA kits respectively. (c) THP1-STING-R232 cells and mouse RAW164.7 macrophage cells were stimulated with 40 µM of ADU-S100 or 10 µM of SHR1032 for the indicated time points. The amount of pTBK1, total TBK1, STING and α-tubulin was measured by western blotting.
as §3

cynomolgus PBMC = test: IFNβ ELISA; format: cell-based, cynomolgus monkey; conditions: 5 h, vs ADU-S100
Method: as §4
Human and Cynomolgous PBMC’s were thawed and spun down in Lymphocyte media (ZENBIO) and resuspended in media to 1.5 x 10^6 cells/ml density. […] Human and monkey IFN-β protein concentration was measured using human IFN-β Quantikine ELISA Kits (R&D Systems) per manufacture’s protocol. Mouse IFN-β was measured using mouse IFN-β Quantikine ELISA Kits (R&D Systems) per manufacture’s protocol. Mouse TNFα, IFN-β and IL-6 in the tumor lysates and plasma was measured by Quantikine ELISA Kits (R&D Systems) per manufacture’s protocol.

pEC50 (THP1 reporter cells): 7.52
SMILES: CCn1nc(C)cc1C(=O)Nc1nc2cc(C(N)=O)cc(OC)c2n1CCC[C@H]1COc2cc(C(N)=O)cc3nc(NC(=O)c4cc(C)nn4CC)n1c23 [SHR1032]
Genes differentially expressed: Down-expressed (THP1-STING-WT cells): 73 | Genes differentially expressed: Up-expressed (THP1-STING-WT cells): 224 | Genes differentially expressed: Down-expressed (MV4-11 cells): 216 | Genes differentially expressed: Up-expressed (MV4-11 cells): 324 | effect of IFNA receptor deletion on induced cell death [1]: no effect on cell death induced by SHR1032 | TBK1 phosphorylation [2]: lower | monkey IFNβ production (cynomolgus PBMC): lower than that with that of ADU-S100, but still detectable
